# Settings: not given
Structure (SMILES),boiling point [°C],melting point [°C],log10 vapour pressure (mmHg),log10 Koc (L/kg),ready biodegradability,log10 Henry constant (atm·m³/mol),log10 Koa
CCc1cccc(C)n1,160,–,–,–,–,–,–
CC1=CCCC=C1,108,–,–,–,–,–,–
O=Cc1cccc(Cl)c1,214,17.5,–,–,–,–,–
CC(C)[C@@H](C)/C=C/[C@@H](C)[C@H]1CC[C@H]2C3=CC=C4C[C@@H](O)CC[C@]4(C)[C@H]3CC[C@]12C,–,127,–,–,–,–,–
C=CC1(C)CC(OC(=O)CO)C2(C)C(C)CCC3(CCC(=O)C32)C(C)C1O (configuration not stated),–,170,–,–,–,–,–
CCC(C(C)C)C(C)C,137,-122,1,–,–,–,–
O=C1C=CC(=Nc2ccc(O)cc2)C=C1,–,160,–,–,–,–,–
CCC1(CC2(c3cccc(Cl)c3)CO2)C(=O)c2ccccc2C1=O (configuration not stated),–,61,-7.7,–,–,–,–
Cc1cccc(C)c2cc(C(C)C)cc1-2,–,32.3,–,–,–,–,–
O=C(Nc1cccc(Cl)c1)OCC#CCCl,–,75,-6.42,3.06,not readily biodegradable,–,–
ICCCCCCI,–,9.5,–,–,–,–,–
O=C(Nc1ccc(Cc2ccc(NC(=O)N3CC3)cc2)cc1)N1CC1,–,–,–,–,not readily biodegradable,–,–
CC(=O)Oc1c[nH]c2ccccc12,–,129,–,–,–,–,–
CCOP(=O)(OCC)OP(=O)(OCC)OCC,–,–,-3.58,–,–,–,–
O=[N+]([O-])c1cccc2cccc([N+](=O)[O-])c12,–,173,–,–,–,–,–
CC(C)(C)Cc1ccccc1,186,–,–,–,–,–,–
C[C@H](CCC(=O)O)[C@H]1CC[C@H]2[C@@H]3CC[C@@H]4C[C@H](O)CC[C@]4(C)[C@H]3CC[C@]12C,–,186,–,–,–,–,–
ClCCN(CCCl)c1ccc2ccccc2c1,–,55,–,–,–,–,–
CCOc1c(N2CCOCC2)cnn(C)c1=O,–,90,–,–,–,–,–
O=C(O)COCC(=O)O,–,148,–,–,–,–,–
c1ccc2c(c1)ccc1cccnc12,339,52,-3.66,–,–,–,–

Structure (SMILES),boiling point [°C],melting point [°C],log10 vapour pressure (mmHg),log10 Koc (L/kg),ready biodegradability,log10 Henry constant (atm·m³/mol),log10 Koa
NNC(=O)c1ccc(N)cc1O,–,195,–,–,–,–,–
COc1cc2ccc(=O)oc2cc1OC,–,146,–,–,–,–,–
CCOP(=S)(OCC)Oc1nc(Cl)c(Cl)cc1Cl,–,42,-4.69,3.7,not readily biodegradable,-5.53,–
OC[C@H]1OC(O)[C@H](O)[C@@H](O)[C@@H]1O (some centres not stated),–,133,–,–,–,–,–
FC(F)=C(F)Br,-1,–,3.29,–,–,–,–
Clc1cc2c(Cl)c(Cl)c(Cl)c(Cl)c2cc1Cl,–,–,-6.46,–,–,–,9.58
CN1CCN(C2=Nc3ccccc3Sc3ccc(Cl)cc32)CC1,–,119,–,–,–,–,–
O=[N+]([O-])c1cccc2ccccc12,304,61,-3.32,–,–,-5.75,–
CCCCCCCCOc1ccc(C(=O)c2ccccc2)c(O)c1,–,48.5,–,–,not readily biodegradable,–,–
CC(C)(c1ccc(O)cc1)c1ccc(O)cc1,–,153,–,–,not readily biodegradable,–,–
CS(=O)(=O)Nc1ccc([N+](=O)[O-])cc1Oc1ccccc1,–,144,–,–,–,–,–
CCC(c1ccc(O)c(C)c1)C(CC)c1ccc(O)c(C)c1 (configuration not stated),–,145,–,–,–,–,–
Cc1ccc2c(c1)C(=O)c1ccccc1C2=O,–,177,–,–,–,–,–
CC(Cl)C(C)Cl (configuration not stated),118,-80,1.39,–,–,–,–
CCC(C)(CC)C(C)(C)C,170,-42.5,–,–,–,–,–
O=C(O)c1ccc(F)cc1F,–,189,–,–,–,–,–
Clc1cc(Cl)c(-c2c(Cl)c(Cl)cc(Cl)c2Cl)cc1Cl,–,–,–,–,–,–,9.87
CCCCOC(=O)c1ccc(N)cc1,–,58,–,–,–,–,–
C[Se]C,55,–,2.38,–,–,-2.76,–
O=S(=O)(O)c1ccc2c(O)cc(S(=O)(=O)O)cc2c1,–,–,–,–,readily biodegradable,–,–
Nc1ccc(Br)cc1Br,–,79.5,–,–,–,–,–

Structure (SMILES),boiling point [°C],melting point [°C],log10 vapour pressure (mmHg),log10 Koc (L/kg),ready biodegradability,log10 Henry constant (atm·m³/mol),log10 Koa
CCOOCC,65,-70,–,–,–,–,–
O=C1NC(=O)C2CC=CCC12 (configuration not stated),–,–,–,–,not readily biodegradable,–,–
C=C(C)C(=O)OCCCC,160,-75,0.326,–,readily biodegradable,–,–
CCC1(CC)C(=O)CCNC1=O,–,104,–,–,–,–,–
CC(=O)OC[C@H]1OC(OC(C)=O)[C@H](OC(C)=O)[C@@H](OC(C)=O)[C@@H]1OC(C)=O (some centres not stated),–,124,–,–,–,–,–
CCCCC1C(=O)N(c2ccccc2)N(c2ccc(O)cc2)C1=O (configuration not stated),–,96,–,–,–,–,–
C=CCC(CC=C)(C(=O)OCC)C(=O)OCC,244,–,–,–,–,–,–
O=C1CN=C(c2ccccc2Cl)c2cc([N+](=O)[O-])ccc2N1,–,238,–,–,–,–,–
CCCCc1nc(Cl)c(CO)n1Cc1ccc(-c2ccccc2-c2nnn[nH]2)cc1,–,184,–,–,–,–,–
CCCCCCCSCCCCCCC,298,–,–,–,–,–,–
CCCC(=O)CCC(C)C,178,–,–,–,–,–,–
CCCCC(C)c1ccccc1 (configuration not stated),208,–,–,–,–,–,–
N[C@@H](CC(=O)O)C(=O)O (racemic),–,272,–,–,–,–,–
CC(C)CON=O,67,–,–,–,–,–,–
Cc1ccc(S(=O)O)cc1,–,86.5,–,–,–,–,–
O=C(OCCO)c1ccccc1O,–,37,–,–,–,–,–
CCN(Cc1ccccc1)c1ccccc1,288,35,–,–,–,–,–
N#CSCSc1nc2ccccc2s1,–,–,–,–,not readily biodegradable,–,–
CCCC(CC)C(C)CC (configuration not stated),165,–,–,–,–,–,–

# Same assay, conditions: fish
Structure (SMILES),log10 BCF,log10 biotransformation half-life (days)
OCC(CO)(CBr)CBr,0.68,-1.4
O=C1C2(Cl)C3(Cl)C4(Cl)C(Cl)(Cl)C5(Cl)C3(Cl)C1(Cl)C5(Cl)C24Cl (configuration not stated),3.19,–
CCOP(=S)(OCC)Oc1nc(Cl)c(Cl)cc1Cl,3.18,0.77
CCCCCCCCOc1ccc(C(=O)c2ccccc2)c(O)c1,1.9,–
CC(C)(c1ccc(O)cc1)c1ccc(O)cc1,1.64,0.27
Clc1cc(Cl)c(-c2c(Cl)c(Cl)cc(Cl)c2Cl)cc1Cl,–,2.45
N#CSCSc1nc2ccccc2s1,2.32,-1.01

# Source: the OPERA property sets (Mansouri et al. 2018)
